Assay results: ChEMBL document CHEMBL5154929, “Optimization of the Natural Product Calothrixin A to Discover Novel Dual Topoisomerase I and II Inhibitors with Improved Anticancer Activity” (J Med Chem, 2022)
pIC50: −log10 of the molar value. Active and inactive are the calls of the source. No cut-off for these calls is given here.

Key:
A549 = test: Cytotoxicity against human A549 cells expressing high level of topoisomerase I/II measured after 72 hrs by MTT assay; type: functional, cell-based; details: A549, 72 h
A-375 [1] = test: Cytotoxicity against human A-375 cells expressing high level of topoisomerase I/II measured after 72 hrs by MTT assay; type: functional, cell-based; details: A-375, 72 h
[2] = biological target: T1, DNA topoisomerase 1 (Homo sapiens) (UniProt P11387); test: Inhibition of DNA topoisomerase I (unknown origin) relaxation activity at 100 uM incubated for 30 mins by chemiDoc system
T1 sequence (whole entry): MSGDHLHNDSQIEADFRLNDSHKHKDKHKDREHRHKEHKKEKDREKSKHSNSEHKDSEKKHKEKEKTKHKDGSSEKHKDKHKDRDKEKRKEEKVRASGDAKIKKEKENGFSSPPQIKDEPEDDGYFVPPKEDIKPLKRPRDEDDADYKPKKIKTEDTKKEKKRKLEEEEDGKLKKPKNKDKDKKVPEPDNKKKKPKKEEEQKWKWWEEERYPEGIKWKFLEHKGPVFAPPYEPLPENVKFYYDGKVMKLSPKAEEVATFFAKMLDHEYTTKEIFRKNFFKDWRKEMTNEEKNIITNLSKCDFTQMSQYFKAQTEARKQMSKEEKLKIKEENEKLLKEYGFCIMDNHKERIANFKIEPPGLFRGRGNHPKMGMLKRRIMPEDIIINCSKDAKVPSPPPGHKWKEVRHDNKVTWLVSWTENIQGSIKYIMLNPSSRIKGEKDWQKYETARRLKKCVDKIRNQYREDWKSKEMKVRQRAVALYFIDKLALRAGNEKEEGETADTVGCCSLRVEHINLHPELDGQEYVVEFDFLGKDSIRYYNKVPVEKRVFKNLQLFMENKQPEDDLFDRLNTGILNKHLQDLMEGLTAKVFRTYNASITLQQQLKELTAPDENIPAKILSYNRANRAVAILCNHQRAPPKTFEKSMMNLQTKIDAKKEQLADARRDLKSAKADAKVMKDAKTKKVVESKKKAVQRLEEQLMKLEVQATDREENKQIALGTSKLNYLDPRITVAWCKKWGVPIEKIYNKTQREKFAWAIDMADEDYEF

MCF7 = test: Cytotoxicity against human MCF7 cells expressing high level of topoisomerase I/II measured after 72 hrs by MTT assay; type: functional, cell-based; details: MCF7, 72 h
MDA-MB-231 = test: Cytotoxicity against human MDA-MB-231 cells expressing high level of topoisomerase I/II measured after 72 hrs by MTT assay; type: functional, cell-based; details: MDA-MB-231, 72 h
SH-SY5Y = test: Cytotoxicity against human SH-SY5Y cells expressing low level of topoisomerase I/II measured after 72 hrs by MTT assay; type: functional, cell-based
[3] = Cytotoxicity against human HEK293T cells measured after 72 hrs by MTT assay; type: toxicity, cell-based, HEK-293T
HCT-116 [4] = test: Cytotoxicity against human HCT-116 cells expressing high level of topoisomerase I/II measured after 72 hrs by MTT assay; type: functional, cell-based; details: HCT-116, 72 h
[5] = Cytotoxicity against human L02 cells measured after 72 hrs by MTT assay; type: toxicity, cell-based
[6] = Aqueous solubility of the compound in saline equilibrating for 24 hrs by HPLC analysis; type: physicochemical
[7] = biological target: DNA topoisomerase 2-alpha (Homo sapiens) (UniProt P11388); test: Poison activity at human topoisomerase II-alpha assessed as stabilization of enzyme-DNA cleavage complex by measuring nicked DNA formation at 100 uM after 60 mins by agarose gel electrophoresis method
[8] = biological target: DNA topoisomerase 2-alpha (Homo sapiens) (UniProt P11388); test: Inhibition of human DNA topoisomerase II-alpha relaxation activity at 100 uM incubated for 30 mins by chemiDoc system
HCT-116 [9] = test: Antiproliferative activity against doxorubicin sensitive human HCT-116 cells measured after 72 hrs by MTT assay; type: functional, cell-based; details: HCT-116, 72 h
HCT-116 [10] = test: Antiproliferative activity against doxorubicin resistant human HCT-116 cells measured after 72 hrs by MTT assay; type: functional, cell-based; details: HCT-116, 72 h
A-375 [11] = test: Induction of cell cycle arrest in human A-375 cells assessed as accumulation of cells at G1 phase at 80 nM incubated for 24 hrs by PI based flow cytometric analysis (RVB = 52.94%); type: functional
A-375 [12] = test: Induction of cell cycle arrest in human A-375 cells assessed as accumulation of cells at S phase at 80 nM incubated for 24 hrs by PI based flow cytometric analysis (RVB = 26.73%); type: functional
A-375 [13] = test: Induction of cell cycle arrest in human A-375 cells assessed as accumulation of cells at G2 phase at 80 nM incubated for 24 hrs by PI based flow cytometric analysis (RVB = 20.34%); type: functional

Sequence of DNA topoisomerase 2-alpha (Homo sapiens) (P11388 whole entry): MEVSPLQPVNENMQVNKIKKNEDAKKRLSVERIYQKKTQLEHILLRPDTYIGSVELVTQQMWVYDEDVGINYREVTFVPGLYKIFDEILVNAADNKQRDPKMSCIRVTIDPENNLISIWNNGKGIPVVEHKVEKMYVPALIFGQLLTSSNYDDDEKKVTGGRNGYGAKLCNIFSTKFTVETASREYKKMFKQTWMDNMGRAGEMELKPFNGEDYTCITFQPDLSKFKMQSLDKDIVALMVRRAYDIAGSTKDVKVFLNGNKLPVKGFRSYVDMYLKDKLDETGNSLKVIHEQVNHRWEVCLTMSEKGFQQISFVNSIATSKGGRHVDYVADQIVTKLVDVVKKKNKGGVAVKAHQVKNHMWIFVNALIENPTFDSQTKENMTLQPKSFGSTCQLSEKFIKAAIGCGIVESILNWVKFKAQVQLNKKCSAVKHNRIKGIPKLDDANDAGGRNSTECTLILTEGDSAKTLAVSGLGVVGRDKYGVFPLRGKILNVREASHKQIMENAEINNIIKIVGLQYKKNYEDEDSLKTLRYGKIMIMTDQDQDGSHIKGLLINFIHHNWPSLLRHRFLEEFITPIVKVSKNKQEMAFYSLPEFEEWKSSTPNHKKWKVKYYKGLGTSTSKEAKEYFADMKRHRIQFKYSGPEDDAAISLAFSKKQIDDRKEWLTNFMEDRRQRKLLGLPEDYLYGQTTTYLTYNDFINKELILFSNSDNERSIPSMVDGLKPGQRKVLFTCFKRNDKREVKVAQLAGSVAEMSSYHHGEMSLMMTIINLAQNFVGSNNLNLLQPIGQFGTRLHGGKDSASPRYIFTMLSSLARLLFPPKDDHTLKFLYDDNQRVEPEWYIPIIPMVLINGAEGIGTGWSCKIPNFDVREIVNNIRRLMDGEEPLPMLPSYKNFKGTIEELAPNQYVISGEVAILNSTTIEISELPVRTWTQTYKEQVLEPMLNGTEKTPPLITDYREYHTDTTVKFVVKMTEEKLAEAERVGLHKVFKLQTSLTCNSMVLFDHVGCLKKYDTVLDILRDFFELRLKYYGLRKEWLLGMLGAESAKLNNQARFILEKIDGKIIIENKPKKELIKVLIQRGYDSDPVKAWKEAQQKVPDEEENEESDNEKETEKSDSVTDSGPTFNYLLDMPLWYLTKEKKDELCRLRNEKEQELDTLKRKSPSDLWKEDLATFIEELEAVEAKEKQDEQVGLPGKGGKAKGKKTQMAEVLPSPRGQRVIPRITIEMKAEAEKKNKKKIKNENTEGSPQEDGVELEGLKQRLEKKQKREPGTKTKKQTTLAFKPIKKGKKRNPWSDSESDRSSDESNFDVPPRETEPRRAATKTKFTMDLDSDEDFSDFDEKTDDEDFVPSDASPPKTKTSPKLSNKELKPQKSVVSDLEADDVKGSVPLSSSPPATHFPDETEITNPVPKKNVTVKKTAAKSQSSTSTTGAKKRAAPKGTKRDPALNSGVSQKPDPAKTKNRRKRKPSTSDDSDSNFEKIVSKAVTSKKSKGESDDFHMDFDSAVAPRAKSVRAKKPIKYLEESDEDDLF

| inhibition [2] | solubility at 24 h [6] | inhibition [8] | pIC50 (HCT-116 [9]) | pIC50 (HCT-116 [10]) | SMILES | pIC50 (A549) | pIC50 (A-375 [1]) | pIC50 (MCF7) | pIC50 (MDA-MB-231) | pIC50 (SH-SY5Y) | IC50 at 72 h [3] | pIC50 (HCT-116 [4]) | IC50 at 72 h [5] | Activity [7] | Activity (A-375 [11]) | Activity (A-375 [12]) | Activity (A-375 [13]) |
| --- | --- | --- | --- | --- | --- | --- | --- | --- | --- | --- | --- | --- | --- | --- | --- | --- | --- |
| Active |  |  |  |  | O=C1c2c[n+]([O-])c3ccccc3c2C(=O)c2c1c1ccccc1n2CCCCN1CCNCC1 | 6.27 | 6.34 | 4.92 | 5.48 | 5.91 | 760 nM | 6.15 | 1380 nM |  |  |  |  |
|  | > 5000 µg/mL |  |  |  | O=C1c2c[n+]([O-])c3ccccc3c2C(=O)c2c1c1ccccc1n2Cc1cn([C@H]2C[C@H](O)[C@@H](CO)O2)nn1 | 6.46 | 6.41 | 6.28 | 6.24 | 6.21 | 3600 nM | 6.92 | 280 nM |  |  |  |  |
| Active |  |  |  |  | CN1CCN(CCCCCn2c3c(c4ccccc42)C(=O)c2c[n+]([O-])c4ccccc4c2C3=O)CC1 | 6.06 | 5.77 | 5.90 | 5.64 | 6.08 |  | 5.91 | 1640 nM |  |  |  |  |
| Active |  | Active |  |  | CN1CCN(CCCCn2c3c(c4ccccc42)C(=O)c2c[n+]([O-])c4ccccc4c2C3=O)CC1 | 7.05 | 7.52 | 7.00 | 6.96 | 7.00 | 100 nM | 8.00 | 80 nM | Active |  |  |  |
| Active |  |  |  |  | CN(C)CCCCn1c2c(c3ccccc31)C(=O)c1c[n+]([O-])c3ccccc3c1C2=O | 6.51 | 6.33 | 6.66 | 6.46 | 6.60 | 520 nM | 6.35 | 300 nM |  |  |  |  |
|  |  |  | 6.54 | 5.69 | COc1cccc2c1C(=O)c1c(O)c3c(c(O)c1C2=O)C[C@@](O)(C(=O)CO)C[C@@H]3O[C@H]1C[C@H](N)[C@H](O)[C@H](C)O1 [DOXORUBICIN] |  | 6.59 |  | 6.09 | 6.10 |  | 6.47 |  |  |  |  |  |
|  |  |  |  |  | CN(C)CCCn1c2c(c3ccccc31)C(=O)c1c[n+]([O-])c3ccccc3c1C2=O | 6.51 | 6.39 | 6.62 | 6.31 | 6.48 | 130 nM | 6.46 | 490 nM |  |  |  |  |
|  |  |  |  |  | CCOC(=O)[C@@H]1OC(C)(C)O[C@H]1Cn1cc(Cn2c3c(c4ccccc42)C(=O)c2c[n+]([O-])c4ccccc4c2C3=O)nn1 | < 6.00 | 6.24 | < 6.00 | 5.98 | < 6.00 | 130 nM | 6.11 | 840 nM |  |  |  |  |
| Active | < 5 µg/mL |  | 6.19 | 6.09 | O=C1c2c[n+]([O-])c3ccccc3c2C(=O)c2[nH]c3ccccc3c21 [CALOTHRIXIN A] | 6.49 | 6.18 | 6.27 | 6.32 | 5.86 | 890 nM | 6.21 | 400 nM |  | 56.28% | 33.26% | 10.46% |
|  |  |  |  |  | O=C1c2c[n+]([O-])c3ccccc3c2C(=O)c2c1c1ccccc1n2CCCN1CCOCC1 | 6.40 | 6.48 | 6.35 | 6.26 | 6.23 | 170 nM | 6.39 | 550 nM |  |  |  |  |
